This is an account of results in patent US20250152580A1, “METHODS FOR TREATING IMMUNE DISEASES” (Ascentage Pharma (Suzhou) co., Ltd., priority 2022, published 2025).

Entries after “also recorded” stand apart in the source; their conditions may differ.

One assay has as its system OVA induced asthma model. As to the kind of experiment: OVA (ovalbumin) induced asthma model in Balb/cA mice. Type of assay: in vivo. The conditions noted are these: for pathological score in lung tissues (H&E): vehicle 4.08±0.23. The text has this: Ovalbumin (OVA)-sensitized and challenged BALB/c mice are widely used as an asthma model and are characterized by high levels of serum IgE, airway inflammation, epithelial hypertrophy, goblet cell hyperplasia, and AHR, which are similar to the features observed in human allergic asthma.
Female Balb/cA mice (8 weeks old) were obtained from Shanghai Jihui Laboratory Animal Co. Ltd. Animals were housed and handled in a temperature-controlled environment with a 12-h light/12-h dark cycle. A total of 66 mice were assigned to 6 groups by randomization based on body weight.
Mice in Group 2 are intraperitoneally immunized with OVA (25 μg) emulsified in Imject alum (2.0 mg of Al[OH]3) on day 1. During this sensitization phase, the mice produce anti-OVA IgE antibodies, which bind IgE receptors on mast cells. After this sensitization, the mice are intratracheally challenged with OVA from day 8 today 14, resulting in OVA cross-linked IgE on mast cells and leading to degranulating mast cells. Mice then develop clinical features of asthma. The mice in the Group 1 normal control group were sensitized and challenged with […] (without OVA).
Mice in Group 1 and Group 2 were treated with vehicle for 7 days (po, qd, from day 8 to day 14). Mice in Group 3 were treated with 50 mg/kg Cpd. X for 8 days (iv, biw, day 1 and day 4). Mice in Group 4 were treated with 30 mg/kg Cpd. 4 for 7 days (po, qd, from day 8 to day 14). Mice in Group 5 were treated with 100 mg/kg Cpd. 4 for 7 days (po, qd, from day 8 to day 14). 3 mg/kg dexamethasone was used as positive control which was orally administered to mice in Group 6 for 7 days (qd, from day 8 to day 14). The protocols and procedures involving the care and use of animals were approved by the Institutional Animal Care and Use Committee (IACUC) at KCI (Suzhou, China).
Airway responsiveness was determined invasively based on lung resistance.
After challenge with aerosolized methacholine. Briefly, mice were challenged with methacholine aerosol in increasing concentrations (0, 6.25, 12.5, and 25 mg/mL in saline) on day 13 by using the noninvasive pulmonary function instrument. Data on lung resistance were continuously collected, and mean values were selected to express changes in airway function and regarded as one form of inflammation expression. Data are presented as the airway stenosis index (penh).
Twenty-four hours after the final OVA challenge (on day 15), mice were killed, and BAL cells were collected by means of slow injection of ice-cold PBS into the trachea, which was repeated 3 times. Numbers of cells in BAL fluid were counted with a chamber. Number of eosinophils in a total of 100 cells was counted under a microscope. Results are expressed as percentage of eosinophils of BAL fluid.
Twenty-four hours after the final OVA challenge (on day 15), mice were killed, and the serum was collected. The OVA-specific IgE levels were measured with the method of enzyme linked immunosorbent assay (ELISA) according to manufacturer protocol.
Twenty-four hours after the final OVA challenge (on day 15), mice were killed, and the lung tissue samples were collected and fixed in 4% paraformaldehyde. Then, they were embedded in paraffin and cut into […] sections for histopathological analysis. Lung sections were then stained with hematoxylin and eosin (H&E) to calculate the inflammatory changes. The histopathological score was evaluated microscopically in a blinded manner. Five arbitrarily selected fields of each mouse were photographed with an optical microscope and the images were determined and analyzed in detail. […]

The test system of assay [1] is IMQ induced psoriasis model. As to the kind of experiment: IMQ induced psoriasis model in Balb/c mice. Type of assay: in vivo. The conditions noted are these: Cpd. 4 100 mg/kg po qd day 0-6. The text has this:
Imiquimod (IMQ) is a ligand for TLRs (Toll-like receptors) of immune cells (including macrophages, monocytes and plasmacytoid dendritic cells), and therefore contributes to strong activation of the immune system.
Female Balb/c mice (7-8 weeks old) were obtained from B&K Universal Animal Co. Ltd. Animals were housed and handled in a temperature-controlled environment with a 12-h light/12-h dark cycle. A total of 36 mice were assigned to 4 groups by randomization based on body weight (6 mice in normal control group and 10 mice in other 3 groups).
At the beginning of the study on day 0, five groups were administered a daily topical dose of 80 mg of a cream preparation containing 5% IMQ on their hair-free backs to establish a model of IMQ-induced psoriasis for seven consecutive days. The G1 normal control group received appropriate vaseline.
Mice in Group 1 and Group 2 were treated with vehicle for 7 days (po, qd, from day 0 to day 6). Mice in Group 3 were treated with 100 mg/kg Cpd. 4 for 7 days (po, qd, from day 0 to day 6). Mice in Group 4 were treated with 30 mg/kg tofacitinib for 7 days (po, bid, from day 0 to day 6). The protocols and procedures involving the care and use of animals were approved by the Institutional Animal Care and Use Committee (IACUC) at KCI (Suzhou, China).
The severity of skin inflammation was monitored and graded using a modified human scoring system Psoriasis Area Severity Index (PASI). Scaling, thickness, and erythema were scored separately on a scale from 0 to 4:0, none; 1, slight; 2, moderate; 3, marked; and 4, very marked. The total score denotes severity of inflammation. Ear thickness of mice was measured every day from day 0 to day 7.
Ear thickness of mice was measured every day from day 0 to day 7. […] Compared with G1 normal control group, after IMQ treatment, ear swelling was observed indicated by increased ear thickness in G2 group reaching the maximal ear thickness to 0.40±0.02 mm on day 7. Cpd.

Setting [2] is: day 15, Cpd. 4 30 and 100 mg/kg po qd, Cpd. X 50 mg/kg iv biw, dexamethasone 3 mg/kg po qd, compared with Vehicle.

Turning to `O=C(NS(=O)(=O)c1ccc(NC[C@H]2COCCO2)c([N+](=O)[O-])c1)c1ccc(N2CCN(CC3=C(c4ccc(Cl)cc4)CC4(CCC4)CC3)CC2)cc1Oc1cnc2[nH]ccc2c1` [Cpd. 4, (S)-N-((4-(((1,4-dioxan-2-yl)methyl)amino)-3-nitrophenyl)sulfonyl)-2-((1H-pyrrolo[2,3-b]pyridin-5-yl)oxy)-4-(4-((6-(4-chlorophenyl)spiro[3.5]non-6-en-7-yl)methyl)piperazin-1-yl)benzamide], in the assay on OVA induced asthma model (30 mg/kg po qd day 8-14, day 15), the “pathological score in lung tissues (H&E)” value was found to be 2.64±0.08. Besides, in the assay with OVA induced asthma model (100 mg/kg po qd day 8-14, day 15), the “pathological score in lung tissues (H&E)” value came to 2.66±0.17. For the same compound, the “pathological score in lung tissues (in words)” value with OVA induced asthma model (Cpd. 4 and Cpd. X, compared with Vehicle) is “significantly ameliorated”. Besides, in the assay with OVA induced asthma model (setting [2]), the “percentage of eosinophils in BALF” value is given as “downregulated markedly; also recorded: significantly downregulated” and the “serum OVA-specific IgE (ELISA)” value is “significantly reduced; also recorded: significantly decreased”. Further, the “airway stenosis index (penh), airway hyper-responsiveness (AHR)” value in the assay with OVA induced asthma model (methacholine challenge day 13, Cpd. 4 30 and 100 mg/kg po qd day 8-14, Cpd. X 50 mg/kg iv biw, dexamethasone 3 mg/kg po qd, compared with Vehicle) is recorded as “significant inhibitory activity; also recorded: significantly reduced”. Also, the ear thickness result in assay [1] (compared with Vehicle (0.40±0.02 mm day 7) and tofacitinib 30 mg/kg po bid) is recorded as “significantly reducing the ear thickness; also recorded: comparable to that of tofacitinib; also recorded: significantly reduced”. In assay [1] (tofacitinib 30 mg/kg po bid, compared with Vehicle), the “PASI score (Psoriasis Area Severity Index)” value is “significantly reducing the clinical PASI score; also recorded: significantly reduced”.
